Laboratory results as given in patent publication US6756382B2, “Amide substituted imidazoquinolines” (3M Innovative Properties Company, priority 1999, dated 2004).

Key:
[1] = system: interferon (α); experiment: Cytokine induction in human cells: interferon secreted by PBMCs, ELISA; assay type: cell-based; details: PBMC, incubated 18 to 24 hours, interferon determined by ELISA, read-out: Lowest Effective Concentration (μM) Interferon
Summary of the method: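 Human donor PBMCs at 1.5-2×10^6 cells/mL final in RPMI with 10% FBS, exposed to serially diluted compound (≤1% DMSO) for 18–24 h at 37 °C, 5% CO2. Supernatant interferon (α) measured by ELISA; value is lowest concentration inducing interferon.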

[2] = system: tumor necrosis factor (α); experiment: Cytokine induction in human cells: tumor necrosis factor (α) secreted by PBMCs, ELISA; assay type: cell-based; details: PBMC, incubated 18 to 24 hours, TNF determined by ELISA, read-out: Lowest Effective Concentration (μM) Tumor Necrosis Factor
Summary of the method: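 Human donor PBMCs at final 1.5-2×10^6 cells/mL in RPMI with 10% FBS incubated 18 to 24 h at 37° C. with serially diluted compound, DMSO at most 1% final. Supernatant TNF-α measured by ELISA; value is the lowest concentration inducing TNF.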

| melting point | Structure (SMILES) | minimal effective concentration [1] | minimal effective concentration [2] |
| --- | --- | --- | --- |
| 148 to 150 °C | Nc1nc2ccccc2c2c1ncn2CCCCNC(=O)CCc1ccccc1 [Example 16, N^1-[4-(4-Amino-1H-imidazo[4,5-c]quinolin-1-yl)butyl]-3-phenylpropanamide] | 1.11 µM | 30 µM |
| 91 to 93 °C | Nc1nc2ccccc2c2c1ncn2CCCCNC(=O)c1cccc2cccnc12 [Example 45, N^8-[4-(4-Amino-1H-imidazo[4,5-c]quinolin-1-yl)butyl]-8-quinolinecarboxamide] | 3.33 µM | > 30 µM |
| 105 to 107 °C | Nc1nc2ccccc2c2c1ncn2CCCCNC(=O)c1cccc(Oc2ccccc2)c1 [Example 39, N^1-[4-(4-Amino-1H-imidazo[4,5-c]quinolin-1-yl)butyl]-3-phenoxybenzamide] | 3.33 µM | > 30 µM |
| 110 to 120 °C | Cc1nc2c(N)nc3ccccc3c2n1CCCCCNC(=O)c1ccccc1 [Example 9, N^1-[5-(4-Amino-2-methyl-1H-imidazo[4,5-c]quinolin-1-yl)pentyl]benzamide] | 0.37 µM | 3.33 µM |
| 210 to 212 °C | Nc1nc2ccccc2c2c1ncn2CCCCNC(=O)c1ccccc1 [Example 1, N^1-[4-(4-Amino-1H-imidazo[4,5-c]quinolin-1-yl)butyl]benzamide] | 0.37 µM | 10 µM |
| 175 to 177 °C | COc1ccc(C(=O)NCCCCn2cnc3c(N)nc4ccccc4c32)c(OC)n1 [Example 44, N^3-[4-(4-Amino-1H-imidazo[4,5-c]quinolin-1-yl)butyl]-2,6-dimethoxynicotnamide] | 1.11 µM | > 30 µM |
| 172 to 173 °C | CC(C)Cc1ccc(C(C)C(=O)NCCCCn2cnc3c(N)nc4ccccc4c32)cc1 (stereo not drawn) [Example 46, N^1-[4-(4-Amino-1 H-imidazo[4,5-c]quinolin-1-yl)butyl]-2-(4-isobutylphenyl)propanamide] | > 30 µM | 10 µM |
| 257 °C (dec.) | Nc1nc2ccccc2c2c1ncn2CCCCNC(=O)c1ccc2ccccc2c1 [Example 43, N^2-[4-(4-Amino-1H-imidazo[4,5-c]quinolin-1-yl)butyl]-2-naphthamide] | 0.12 µM | > 30 µM |
| 198 to 198.5 °C | COCCc1nc2c(N)nc3ccccc3c2n1CCCNC(=O)c1cc2ccccc2cn1 [Example 192, N-{3-[4-amino-2-(2-methoxyethyl)-1H-imidazo[4,5-c]quinolin-1-yl]propyl}isoquinoline-3-carboxamide] | 0.12 µM | 0.37 µM |
| 150 to 157 °C | Nc1nc2ccccc2c2c1ncn2CCCCNC(=O)CCCCOc1ccc2[nH]c(=O)[nH]c2c1 [Example 19, N-[4-Amino-1H-imidazo[4,5-c]quinolin-1-yl]butyl-5-[(2-oxo-2,3-dihydro-1H-benzo[d]imidazol-5-yl)oxy]pentamide] | 10 µM | > 30 µM |
| 163 to 164 °C | CCCCC(CC)C(=O)NCCCCn1cnc2c(N)nc3ccccc3c21 (stereo not drawn) [Example 36, N^1-[4-(4-Amino-1H-imidazo[4,5-c]quinolin-1-yl)butyl]-2-ethylhexanamide] | 1.11 µM | 10 µM |
| 254 to 256 °C | Nc1nc2ccccc2c2c1ncn2CCNC(=O)CCc1ccccc1 [Example 17, N^1-[2-(4-Amino-1H-imidazo[4,5-c]quinolin-1-yl)ethyl]-3-phenylpropanamide] | 3.33 µM | 10 µM |
